# Experimental data as given in US5788969A, “Peptides for inducing cytotoxic T lymphocyte responses hepatitis B virus” (priority 1995, dated 1998).
# Legend:
# [1] = test system: allogeneic target cells partially matched at HLA class I; experiment: HLA restriction of peptide specific CTL using allogeneic target cells partially matched at HLA class I; assay type: cell-based, human; conditions: clone B3 (patient A-1) and polyclonal CTL line (patient A-3)
# Protocol: Using patient A-1's HBsAg329-348 specific cell line four clones were derived from cells plated at 1 cell per well (clone B13, B16, B17) or 0.3 cells per well (clone B3). Clone B3 was tested against a panel of allogeneic target cells partially matched with the effectors at the level of HLA class I alleles. […] Since the HLA-A2 subtypes of the patients were not determined, it is not known if the CTL response to the peptides is restricted only by the HLA-A2.1 allele or whether it extends to other HLA-A2 subtypes as well.
# [2] = test system: PBMC from patients and normal donors; conditions: patients A-1 and A-3, after 2-3 weeks of stimulation
sequence,measurement,setting,value
ASARFSWLSLLVPFVQWFVG [HBsAg329-348],HLA restriction of cytolytic activity of peptide specific CTL,[1],HLA-A2 restricted
same,cytotoxic response of peptide stimulated PBMC against JY cells prepulsed with the peptide,[2],strong cytotoxic response
